ChEMBL document CHEMBL1201862, “PubChem BioAssay data set” (2004)
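Values below derive from 48-hour exposures of cells grown in 96-well plates, with endpoints linearly interpolated between the two concentrations bracketing the appropriate inhibition level. GI50 = concentration required for 50% inhibition of growth.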 The source made the active and inactive calls. Rule as the data show it: active = GI50 up to about 1.1 µM and inactive = higher.

Assays:
Experiment in all cases: growth of human tumour cells (NCI), 48 h
SN12C = system: SN12C
786-0 = system: 786-0
SF-295 = system: SF-295
HCT-116 = system: HCT-116
ACHN = system: ACHN
TK-10 = system: TK-10
A498 = system: A498
SW-620 = system: SW-620
SK-MEL-28 = system: SK-MEL-28
HT-29 = system: HT-29
NCI-H23 = system: NCI-H23
LOX IMVI = system: LOX IMVI
SF-539 = system: SF-539
UACC-257 = system: UACC-257
IGROV-1 = system: IGROV-1
NCI-H460 = system: NCI-H460
OVCAR-3 = system: OVCAR-3
PC-3 = system: PC-3
OVCAR-8 = system: OVCAR-8
HCT-15 = system: HCT-15
SR = system: SR
T47D = system: T47D
Malme-3M = system: Malme-3M
HCC 2998 = system: HCC 2998
HOP-62 = system: HOP-62
SK-MEL-2 = system: SK-MEL-2
MCF7 = system: MCF7
M14 = system: M14
DU-145 = system: DU-145
UACC-62 = system: UACC-62
MDA-N = system: MDA-N
SF-268 = system: SF-268
COLO 205 = system: COLO 205
MOLT-4 = system: MOLT-4
RPMI-8226 = system: RPMI-8226
SK-OV-3 = system: SK-OV-3
K562 = system: K562
EKVX = system: EKVX
A549 = system: A549
BT-549 = system: BT-549
MDA-MB-231 = system: MDA-MB-231
OVCAR-5 = system: OVCAR-5
OVCAR-4 = system: OVCAR-4
CAKI-1 = system: CAKI-1
SNB-19 = system: SNB-19
HL-60 = system: HL-60
Hs-578T = system: Hs-578T
MDA-MB-435 = system: MDA-MB-435
SNB-75 = system: SNB-75
KM12 = system: KM12
U-251 = system: U-251
SK-MEL-5 = system: SK-MEL-5
RXF 393 = system: RXF 393
CCRF-CEM = system: CCRF-CEM
UO-31 = system: UO-31
NCI-H226 = system: NCI-H226
HOP-92 = system: HOP-92

`CC/C(C)=C1\OC(=O)C(C)C(O)C(Cc2cccnc2)NC(=O)C(NC(=O)c2ncccc2O)C(C)OC1=O` (stereo unspecified) was tested. Which GI50 (SN12C) did it give?
Its GI50 is 94 µM (inactive).

And the GI50 (786-0)?
Its GI50 is > 100 µM (inactive).

What about the GI50 (SF-295) of the same compound?
The GI50 was 44.4 µM (inactive).

What about the GI50 (HCT-116) of the same compound?
Its GI50 is 82.2 µM (inactive).

What about the GI50 (ACHN) of the same compound?
Its GI50 is 6.7 µM (inactive).

What about the GI50 (TK-10) of the same compound?
The GI50 was > 100 µM (inactive).

And the GI50 (A498)?
The GI50 was > 100 µM (inactive).

What about the GI50 (SW-620) of the same compound?
The GI50 was > 100 µM (inactive).

What about the GI50 (SK-MEL-28) of the same compound?
Its GI50 is > 100 µM (inactive).

What about the GI50 (HT-29) of the same compound?
The GI50 was 42.2 µM (inactive).

What about the GI50 (NCI-H23) of the same compound?
The GI50 was > 100 µM (inactive).

And the GI50 (LOX IMVI)?
The GI50 was > 100 µM (inactive).

And the GI50 (SF-539)?
Its GI50 is > 100 µM (inactive).

And the GI50 (UACC-257)?
The GI50 was > 100 µM (inactive).

What about the GI50 (IGROV-1) of the same compound?
Its GI50 is 27.1 µM (inactive).

And the GI50 (NCI-H460)?
Its GI50 is 63.1 µM (inactive).

What about the GI50 (OVCAR-3) of the same compound?
The GI50 was > 100 µM (inactive).

And the GI50 (PC-3)?
The GI50 was 50 µM (inactive).

And the GI50 (OVCAR-8)?
Its GI50 is 63.8 µM (inactive).

And the GI50 (HCT-15)?
The GI50 was 49.5 µM.

What about the GI50 (SR) of the same compound?
The GI50 was > 100 µM (inactive).

What about the GI50 (T47D) of the same compound?
Its GI50 is > 100 µM (inactive).

And the GI50 (Malme-3M)?
The GI50 was 39.5 µM (inactive).

And the GI50 (HCC 2998)?
Its GI50 is > 100 µM (inactive).

And the GI50 (HOP-62)?
The GI50 was 51.1 µM (inactive).

What about the GI50 (SK-MEL-2) of the same compound?
The GI50 was > 100 µM (inactive).

And the GI50 (MCF7)?
Its GI50 is > 100 µM (inactive).

And the GI50 (M14)?
Its GI50 is 70.6 µM (inactive).

And the GI50 (DU-145)?
The GI50 was > 100 µM (inactive).

What about the GI50 (UACC-62) of the same compound?
The GI50 was > 100 µM (inactive).

And the GI50 (MDA-N)?
Its GI50 is > 100 µM (inactive).

What about the GI50 (SF-268) of the same compound?
Its GI50 is 58.3 µM (inactive).

And the GI50 (COLO 205)?
The GI50 was > 100 µM (inactive).

What about the GI50 (MOLT-4) of the same compound?
The GI50 was 53.6 µM (inactive).

And the GI50 (RPMI-8226)?
Its GI50 is 90.8 µM (inactive).

What about the GI50 (SK-OV-3) of the same compound?
Its GI50 is 71.9 µM (inactive).

And the GI50 (K562)?
Its GI50 is > 100 µM (inactive).

And the GI50 (EKVX)?
Its GI50 is 31.3 µM (inactive).

And the GI50 (A549)?
The GI50 was 74.3 µM (inactive).

What about the GI50 (BT-549) of the same compound?
The GI50 was > 100 µM (inactive).

What about the GI50 (MDA-MB-231) of the same compound?
The GI50 was > 100 µM (inactive).

What about the GI50 (OVCAR-5) of the same compound?
Its GI50 is > 100 µM (inactive).

And the GI50 (OVCAR-4)?
The GI50 was > 100 µM (inactive).

What about the GI50 (CAKI-1) of the same compound?
Its GI50 is > 100 µM (inactive).

And the GI50 (SNB-19)?
Its GI50 is > 100 µM (inactive).

And the GI50 (HL-60)?
Its GI50 is 62.8 µM (inactive).

What about the GI50 (Hs-578T) of the same compound?
The GI50 was 29.7 µM (inactive).

And the GI50 (MDA-MB-435)?
The GI50 was > 100 µM (inactive).

And the GI50 (SNB-75)?
The GI50 was 51.6 µM (inactive).

What about the GI50 (KM12) of the same compound?
The GI50 was 42 µM (inactive).

What about the GI50 (U-251) of the same compound?
The GI50 was > 100 µM (inactive).

What about the GI50 (SK-MEL-5) of the same compound?
The GI50 was > 100 µM (inactive).

Which results are given for `O=C(O)c1ccc(/C=N\N(CCO)C2=NCCN2)cc1`?
GI50 (SN12C): > 100 µM (inactive); GI50 (786-0): > 100 µM (inactive); GI50 (RXF 393): > 100 µM (inactive); GI50 (SF-295): > 100 µM (inactive); GI50 (CCRF-CEM): > 100 µM (inactive); GI50 (HCT-116): > 100 µM (inactive); GI50 (ACHN): > 100 µM (inactive); GI50 (TK-10): > 100 µM (inactive); GI50 (SW-620): > 100 µM (inactive); GI50 (SK-MEL-28): > 100 µM (inactive); GI50 (HT-29): > 100 µM (inactive); GI50 (NCI-H23): > 100 µM (inactive); GI50 (LOX IMVI): > 100 µM (inactive); GI50 (SF-539): > 100 µM (inactive); GI50 (IGROV-1): > 100 µM (inactive); GI50 (NCI-H460): > 100 µM (inactive); GI50 (OVCAR-3): > 100 µM (inactive); GI50 (PC-3): > 100 µM (inactive); GI50 (OVCAR-8): > 100 µM (inactive); GI50 (UO-31): > 100 µM (inactive); GI50 (HCT-15): > 100 µM; GI50 (SR): > 100 µM (inactive); GI50 (T47D): > 100 µM (inactive); GI50 (Malme-3M): > 100 µM (inactive); GI50 (HCC 2998): > 100 µM (inactive); GI50 (HOP-62): > 100 µM (inactive); GI50 (SK-MEL-2): > 100 µM (inactive); GI50 (MCF7): > 100 µM (inactive); GI50 (M14): > 100 µM (inactive); GI50 (DU-145): > 100 µM (inactive); GI50 (UACC-62): > 100 µM (inactive); GI50 (MDA-N): > 100 µM (inactive); GI50 (SF-268): > 100 µM (inactive); GI50 (COLO 205): > 100 µM (inactive); GI50 (MOLT-4): > 100 µM (inactive); GI50 (RPMI-8226): > 100 µM (inactive); GI50 (SK-OV-3): > 100 µM (inactive); GI50 (K562): > 100 µM (inactive); GI50 (EKVX): > 100 µM (inactive); GI50 (A549): > 100 µM (inactive); GI50 (BT-549): > 100 µM (inactive); GI50 (MDA-MB-231): > 100 µM (inactive); GI50 (OVCAR-5): > 100 µM (inactive); GI50 (OVCAR-4): > 100 µM (inactive); GI50 (SNB-19): > 100 µM (inactive); GI50 (HL-60): > 100 µM (inactive); GI50 (NCI-H226): > 100 µM (inactive); GI50 (Hs-578T): > 100 µM (inactive); GI50 (MDA-MB-435): > 100 µM (inactive); GI50 (SNB-75): 66.5 µM (inactive); GI50 (KM12): > 100 µM (inactive); GI50 (HOP-92): > 100 µM (inactive); GI50 (U-251): > 100 µM (inactive); GI50 (SK-MEL-5): > 100 µM (inactive)
